Source: paper PMC8845381 (BMC Microbiology, 2022)
In brackets after ≈: the same amount, converted by molar mass. Several values for one entry are separate records, joined by “and”; a condition that tells them apart may be missing. Equal values may be shown once. Read-outs that look alike come from different tables or passages of the source. Marks after values point to notes of the source that are not given here.

Legend:
human blood = type: cell-based; conditions: 30 min at 37 °C
Method: In vitro hemolytic activity was done by spectrophotometric method. In this study, the fresh human blood samples obtained from returned unused blood bags in the blood bank (Iranian Blood Transfusion Organization) were used. […] The mixture was incubated for 30 min at 37 °C and then centrifuged at 1500 rpm for 10 min. The free hemoglobin in the supernatant was analyzed by UV–Vis spectrophotometer at 540 nm. The PBS and distilled water (DW) were used as minimal and maximal hemolytic controls.

[1] = test system: L. major amastigotes in J774.A1 macrophages; test: Parasite load in macrophage (anti-amastigote activity); type: cell-based, Leishmania major; conditions: for Number of amastigotes: mean per macrophage
Method: For the assessment of the parasite load, 2 × 10^5 of J774.A1 macrophages cells were cultured in a 24-well microtiter plate containing a 13 mm-diameter coverslip per well, and supplemented RPMI medium supplemented with 10% FCS and 100 U/ml penicillin and 100 μg/mL streptomycin and incubated at 37 °C in CO2 5% for 24 h. Promastigotes of L. major at the stationary phase were seeded into each well (1:10) and incubated for 24 h and the non-internalized parasites were removed by aspirating the supernatant. […] The number of infected macrophages and the number of amastigotes per macrophage were determined by counting the number of parasites in 100 macrophages in a neubauer chamber.

L929 cell line = test: Cytotoxicity assay (MTT); type: cell-based; conditions: for Cytotoxicity assay Percent (%): L929, 24 h
Method: L929 cell line was seeded into 96-well microtiter plates (Nunc, Roskilde, Denmark) in DMEM (100 μL) supplemented with 10% FBS and 1% penicillin–streptomycin solution. Cells then were incubated at 37 °C in a humidity of 95% and 5% CO2 for 24 h. […] After 24 h of incubation time, 10 μL of MTT solution was added to each well. After 3 h of incubation at 37 °C, the supernatant was removed and 100 μL of DMSO was added. Finally, the absorbance at 570 nm was measured by a microtiter plate reader (BioTek ELX800, Winooski, VT, USA) and the viability was calculated by the below formula [21]: Viability%=ODTest/ODControl×100

[2] = test system: L. major intracellular amastigotes; conditions: 10, 50, and 100 µg/mL; cited from earlier work
L. major promastigotes [3] = test: In vitro assay: live and dead promastigotes counted after eosin staining; type: cell-based, Leishmania major (Iranian strain MRHO/IR/75/ER); conditions: for effectiveness (mortality rate of promastigotes) compared with Amphotericin B: P < 0.05
Method: L. major promastigotes, Iranian strain MRHO/IR/75/ER, were provided by the department of parasitology, Tehran University of Medical Sciences, Tehran, Iran and were cultivated in RPMI-1640 medium supplemented with 10% FBS and penicillin–streptomycin solution at 24 °C with frequent passages every three days.
The experiments were done separately for 12, 24, 48, and 72 h in a 96-well microtiter plate. At first, 100 μL RPMI-1640 medium containing 10^5 promastigotes (at log phase) was added to each well. […] Amphotericin B (20 mg/mL) as a positive control was considered in three wells, in a concentration of 12 μM. In another row, 100 µL of medium containing parasites with phosphate buffered saline (PBS) without the drug was added as the negative controls. The plate was incubated at 24 °C for 12, 24, 48, and 72 h.

L. major = conditions: in vitro; cited from earlier work
[4] = Characterization by dynamic light scattering (size, PDI, zeta potential); type: physicochemical; conditions: DLS
Method: The homogenization followed by the probe ultra-sonication method was performed for preparing the nanoparticles. […] Then, the hot lipid phase was dispersed in the 1/3 aqueous solution containing 500 mg of hydrophilic surfactant (Tween 80), heated at the same temperature, homogenized by high-shear homogenizer at 13,000 rpm for 7 min (D-91126 Schwabach, Heidolph, Germany), and then sonicated by a probe sonicator (Bandelinsonopuls, 3100, Berlin, Germany) at power levels of 3.5 W for 5 min to form a coarse pre-emulsion. The mixture was then dispersed into 2/3 of an ice-cold surfactant solution preserved in an ice bath. The final mixture was sonicated again at power levels of 0.6 W for 10 min while dipped in the ice bath. This cooling phase encouraged the formation of lipid nanoparticles.

L. major promastigotes [5] = test: Apoptosis assay (Annexin V-FITC/PI flow cytometry); type: cell-based; conditions: Leishmania major, 24 h, read-out: viability rates of cells (flow cytometry)
Method: They were incubated at 24 °C for 24 h. Then cells were washed twice with PBS and 1 × 10^5 cells were re-suspended in 100 μL binding buffer and incubated with 5 μL of Annexin V-FITC and propidium iodide (PI) as a counterstain for 15 min at room temperature in darkness, according to the manufacturer's instructions (BD Biosciences, San Diego, CA, USA). Finally, the percent of apoptotic and necrotic cells was evaluated by flow cytometry (Becton Dickinson) and data were analyzed using Flowjo software (version 7).

[6] = test system: nitric oxide (NO) production by infected murine peritoneal macrophages; test: Indirect measurement of nitric oxide production (Griess reaction); type: cell-based
Method: NO levels were evaluated using Griess reaction and compared to the untreated macrophages. In a 96-well microtiter plate, 2 × 10^5 murine peritoneal macrophages were cultured at 37 °C in 5% CO2 for 4 h to allow cell adhesion. 100 µL of new medium containing promastigotes in stationary phase (10 promastigotes per macrophage) was added. […] After the incubation times, the level of NO was analyzed using cell culture supernatant by an ELISA plate reader at 550 nm.

L. amazonensis = conditions: in vitro; cited from earlier work
Leishmania major = test: In vivo assay: lesion size in infected BALB/c mice, topical treatment; conditions: after 28 days
Method: This study was performed in accordance with ARRIVE guidelines (https://arriveguidelines.org). Female BALB/c mice (6–7 weeks old) purchased from Razi Rad Industries were used for experimentation and kept in standard boxes under controlled light and temperature conditions. Overall, 1.6 × 10^6 promastigotes, in the stationary phase, were injected subcutaneously in the base of the tail of mice. The mice were divided into 10 groups and five mice were allocated in each group. […] After three weeks, treatment was started when local lesions were apparent. […] Topical treatment was used on each mouse every 28 continuous days. The diameter of lesions was measured weekly before and after treatment by dial micrometer (Starrett Dial indicator, model 25A, USA) and compared with that of untreated lesions. The ulcer size was determined according to the following formula (a: Length and b: width): Lesionsize=a+b/2

Candida albicans = conditions: cited from earlier work
[7] = test system: L. amazonensis promastigotes; set-up: method as in PMID 26517558; conditions: in vitro; cited from earlier work
[8] = 20 µg/mL, 0 h (Before treatment)
[9] = 50 µg/mL, 0 h (Before treatment)
[10] = 100 µg/mL, 0 h (Before treatment)
[11] = 200 µg/mL, 0 h (Before treatment)
[12] = 400 µg/mL, 0 h (Before treatment)

## C[C@@H]1[C@H](O)[C@@H](C)/C=C/C=C/C=C/C=C/C=C/C=C/C=C/[C@H](O[C@@H]2O[C@H](C)[C@@H](O)[C@H](N)[C@@H]2O)C[C@@H]2O[C@](O)(C[C@@H](O)C[C@@H](O)[C@H](O)CC[C@@H](O)C[C@@H](O)CC(=O)O[C@H]1C)C[C@H](O)[C@H]2C(=O)O [Amphotericin B, reference compound]
Human blood; concentration not given
  Hemolytic assay Percent (%): 21.6% and 21.6 ± 5.3%
[1]; [8]
  MQ infectivity (%): 73.4%
  Number of amastigotes: 15.7
[1]; 20 µg/mL, 24 h
  MQ infectivity (%): 34.5^* %
  Number of amastigotes: 4.3^*
[1]; 20 µg/mL, 48 h
  MQ infectivity (%): 42.7^* %
  Number of amastigotes: 0.4^**
L929 cell line; concentration not given
  Cytotoxicity assay Percent (%): 19.5 ± 0.6%

## Oc1ccc(/C=C/c2cc(O)cc(O)c2)cc1 [Resveratrol, 3,5,4' -trihydroxy-trans-stilbene]
[2]
  effect on intracellular amastigote: resistant
Human blood; 100 µg/mL
  Hemolytic assay Percent (%): 17.5 ± 2.4%
Human blood; 200 µg/mL
  Hemolytic assay Percent (%): 19.6 ± 3.7%
Human blood; 400 µg/mL (highest concentration)
  Hemolytic assay Percent (%): 25.2 ± 5.3%
L. major promastigotes [3]; 100 µg/mL, 48 h, 'In this study' (sentence follows description of ref 17)
  promastigotes eliminated: 100%
L. major promastigotes [3]; Leishmania major, promastigotes of L. major after 12 h
  IC50: 16.2 µg/mL (≈ 71.1 µM)
L. major promastigotes [3]; after 12 h, 50, 100, 200, and 400 µg/mL
  effectiveness (mortality rate of promastigotes) compared with Amphotericin B: significantly more effective than Amphotericin B
L. major promastigotes [3]; after 24 h, all concentrations
  effectiveness (mortality rate of promastigotes) compared with Amphotericin B: significantly more effective than Amphotericin B
L. major promastigotes [3]; after 48 h, resveratrol 50-400 µg/mL, RNE 100-400 µg/mL, not significant (P > 0.05)
  anti-leishmanial activity compared with positive control (Amphotericin B): better anti-leishmanial activity than positive control
L. major
  IC50: 65.5 µM
[4]
  average size: 432.7 ± 26 nm
L. major promastigotes [5]; 200 µg/mL
  viability at 200 µg/mL: 87.9%
L. major promastigotes [5]; 400 µg/mL
  viability at 400 µg/mL: 71.4%
[6]; resveratrol 50 and 100 µg/mL, RNE 50, 100, 200, and 400 µg/mL, P < 0.05
  NO production by macrophages compared with Amphotericin B: decreased the NO production even more than Amphotericin B
[6]; resveratrol ≥ 200 µg/mL, 24 h, control PBS 7.23 μM, DMSO 6.73 μM
  production of NO compared with the control group: decreased the production of NO
[1]; [9]
  MQ infectivity (%): 76.4%
  Number of amastigotes: 17.6
[1]; 50 µg/mL, 24 h
  MQ infectivity (%): 68.4^* %
  Number of amastigotes: 12.5
[1]; 50 µg/mL, 48 h
  MQ infectivity (%): 55.3%
  Number of amastigotes: 9.8^*
[1]; [10]
  MQ infectivity (%): 81.0%
  Number of amastigotes: 18.3
[1]; 100 µg/mL, 24 h
  MQ infectivity (%): 56.2^* %
  Number of amastigotes: 12.1
[1]; 100 µg/mL, 48 h
  MQ infectivity (%): 41.9^* %
  Number of amastigotes: 9.5^*
[1]; [11]
  MQ infectivity (%): 78.3%
  Number of amastigotes: 18.0
[1]; 200 µg/mL, 24 h
  MQ infectivity (%): 42.6^* %
  Number of amastigotes: 6.7^*
[1]; 200 µg/mL, 48 h
  MQ infectivity (%): 35.5^* %
  Number of amastigotes: 2.4^*
[1]; [12]
  MQ infectivity (%): 79.6%
  Number of amastigotes: 16.2
[1]; 400 µg/mL, 24 h
  MQ infectivity (%): 31.4^* %
  Number of amastigotes: 3.3^*
[1]; 400 µg/mL, 48 h
  MQ infectivity (%): 25.8^* %
  Number of amastigotes: 0.5^**
L. amazonensis
  IC50: 27 µM
Leishmania major; 15 mg/kg BW, topical, PBS control 7.5 and 7.2 mm
  mean lesion size: 0.0 mm
Leishmania major; all concentrations, not significant (P > 0.05)
  anti-leishmanial activity (lesion size) compared with Amphotericin B: better anti-leishmanial activity
L929 cell line
  cytotoxicity against the L929 cell line (in words): no cytotoxicity
L929 cell line; 100 µg/mL
  Cytotoxicity assay Percent (%): 8.4 ± 1.6%
L929 cell line; 200 µg/mL
  Cytotoxicity assay Percent (%): 14.8 ± 3.0%
L929 cell line; 400 µg/mL
  Cytotoxicity assay Percent (%): 18.7 ± 4.6%
Candida albicans
  IC50: 10 to 20 µg/mL

## Oc1cc(O)cc(/C=C/c2ccc(O)cc2O)c1 [oxyresveratrol]
[7]
  IC50: 65 µg/mL (≈ 266 µM)
